The test system of assay [1] is primary human osteoblasts (NHOst). Kind of assay: BrdU incorporation (Studies L-117.01/02). Format: cell-based. The text has this: (§1) Heterologous Protein Expression: CG53135-01 (batch 4A and 6) was used in these experiments. Protein was expressed using Escherichia coli (E. coli), BL21 (Novagen, Madison, Wis.), transformed with full-length CG53135-01 in a pETMY-hFGF20X/BL21 expression vector. Cells were harvested and disrupted, and then the soluble protein fraction was clarified by filtration and passed through a metal chelation column. The final protein fraction was dialyzed against phosphate buffered saline (PBS) plus 1 M L-arginine. Protein samples were stored at −70° C.
(§2) BrdU Incorporation: proliferative activity was measured by treatment of serum-starved cultured cells with a given agent and measurement of BrdU incorporation during DNA synthesis. Cells were cultured in respective manufacturer recommended basal growth medium supplemented with 10% fetal bovine serum or 10% calf serum as per manufacturer recommendations. Cells were grown in 96-well plates to confluence at 37° C. in 10% CO2/air (to subconfluence at 5% CO2 for dedifferentiated chondrocytes and NHOst). Cells were then starved in respective basal growth medium for 24-72 hours. CG53135 protein purified from E. coli or pCEP4/Sec or pCEP4/Sec-FGF 20× enriched conditioned medium was added (10 μL/100 μL of culture) for 18 hours. BrdU (10 μM final concentration) was then added and incubated with the cells for 5 hours. BrdU incorporation was assayed according to the manufacturer's specifications (Roche Molecular Biochemicals, Indianapolis, Ind.).

For assay [2], the system named is human pulmonary artery smooth muscle cells. Kind of assay: BrdU incorporation (Studies L-117.01/02). Format: cell-based.
Description: as §1, §2

Assay [3] concerns Balb MK mouse keratinocytes. Kind of assay: BrdU incorporation (Studies L-117.01/02). Format: cell-based.
Description: as §1, §2
In general terms: Dividing cells build labelled thymidine or BrdU into new DNA.

Assay [4] relates to mouse skeletal muscle cells. Kind of assay: BrdU incorporation (Studies L-117.01/02). Format: cell-based.
Description: as §1, §2

In assay [5] the test system is CCD 1106 KERTr human keratinocytes. Kind of assay: BrdU incorporation (Studies L-117.01/02). Format: cell-based.
Description: as §1, §2

The test system of assay [6] is TF-1, an erythroblastic leukemia cell line. Kind of assay: BrdU incorporation (Studies L-117.01/02). Format: cell-based.
Description: as §1, §2

For assay [7], the system named is human coronary artery smooth muscle cells. Kind of assay: BrdU incorporation (Studies L-117.01/02). Format: cell-based.
Description: as §1, §2

Assay [8] relates to human aorta smooth muscle cells (HSMC). Kind of assay: BrdU incorporation (Studies L-117.01/02). Format: cell-based.
Description: as §1, §2

The test system of assay [9] is rabbit synoviocyte cell line, HIG-82. Kind of assay: BrdU incorporation (Studies L-117.01/02). Format: cell-based.
Description: as §1, §2

Assay [10] deals with Jurkat, an acute T-lymphoblastic leukemia cell line. Kind of assay: BrdU incorporation (Studies L-117.01/02). Format: cell-based.
Description: as §1, §2

Assay [11] deals with CCD-1070Sk normal human foreskin fibroblasts. Kind of assay: BrdU incorporation (Studies L-117.01/02). Format: cell-based.
Description: as §1, §2

For assay [12], the system named is mesenchymal and epithelial cells. Kind of assay: Proliferation summary for variants. Format: cell-based. To be noted: in vitro. Here is the method: (§3) Experiments were performed to evaluate the proliferative response of representative cell types to CG53135, e.g., a full-length tagged variant (CG53135-01), a deletion variant (CG53135-02), and a full-length codon-optimized untagged variant (CG53135-05).
(§4) CG53135-02 (batch 1 and 13) was also used in these experiments. Protein was expressed in E. coli, BLR (DE3) (Novagen), transformed with the deletion variant CG53135-02 inserted into a pET24a vector (Novagen). A research cell bank (RCB) was produced and cell paste containing CG53135-02 was produced by fermentation of cells originating from the RCB. Cell membranes were disrupted by high-pressure homogenization, and lysate was clarified by centrifugation. CG53135-02 was purified by ion exchange chromatography. The final protein fraction was dialyzed against the formulation buffer (100 mM citrate, 1 mM ethylenediaminetetraacetic acid (EDTA), and 1 M L-arginine).
(§5) CG53135-05, DEV10, which were also used in these experiments, was prepared by Cambrex Biosciences (Hopkinton, Mass.) according to Process 1 as described in Section 6.18.1, infra.
as §2
(§6) The above described experiments were also performed using CG53135-02 and CG53135-05 protein products, and the results are summarized in the Conclusion section below.

For another assay, the system named is endothelial cells. Kind of assay: Proliferation summary for variants. Format: cell-based. Conditions: in vitro. As for the experimental part: as §3, §4, §5, §2, §6
Assay [13] concerns NIH 3T3 murine embryonic lung fibroblasts. Kind of assay: BrdU incorporation (Studies L-117.01/02). To be noted: NIH 3T3, BrdU. Format: cell-based, mouse. Here is the method:
FIG. 19. […] Serum starved NIH 3T3 cells were treated with purified CG53135-01 (CG53135 in figure), 10% serum or vehicle only (control). DNA synthesis was measured in triplicate for each sample, using a BrdU incorporation assay. Data points represent average BrdU incorporation and bars represent standard error (SE).
as §1
BrdU Incorporation: proliferative activity was measured by treatment of serum-starved cultured cells with a given agent and measurement of BrdU incorporation during DNA synthesis. Cells were cultured in respective manufacturer recommended basal growth medium supplemented with 10% fetal bovine serum or 10% calf serum as per manufacturer recommendations. Cells were grown in 96-well plates to confluence at 37° C. in 10% CO2/air (to subconfluence at 5% CO2 for dedifferentiated chondrocytes and NHOst). […]

Assay [14] deals with HUVECS. Kind of assay: Tube formation. Format: cell-based, human. To be noted: HUVEC.
In assay [15] the test system is breast epithelial cell line, B5589. Kind of assay: BrdU incorporation (Studies L-117.01/02). Format: cell-based, human.
Description: as §1
as §2, with “BrdU incorporation was assayed according to the manufacturer's specifications (Roche Molecular Biochemicals, Indianapolis, Ind.).” left out

In assay [16] the test system is MG-63 osteosarcoma cell line. Kind of assay: BrdU incorporation (Studies L-117.01/02). Format: cell-based, human.
Description: as §1
as §2, with “BrdU incorporation was assayed according to the manufacturer's specifications (Roche Molecular Biochemicals, Indianapolis, Ind.).” left out

For a further assay, the system named is NIH 3T3 cells. Kind of assay: Growth assay (cell count). Format: cell-based, mouse. To be noted: 1 μg, 48 hours. Here is the method:
FIG. 20. CG53135 stimulates Growth of NIH 3T3 Fibroblasts. Duplicate wells of serum starved NIH 3T3 cells were treated for […] with purified CG53135-01 (1 ug) or vehicle control. Cell counts for each well were determined in duplicate. Y— axis identifies cell number, which is the average of 4 cell counts (treatment duplicates×duplicate counts) and standard error (SE).
Growth Assay: growth activity was obtained by measuring cell number following treatment of cultured cells with a given agent for a specified period of time. In general, cells grown to ˜20% confluency in 6-well dishes were treated with basal medium supplemented with CG53135 or control, incubated for several days, trypsinized and counted using a Coulter Z1 Particle Counter.
To determine if recombinant CG53135-01 sustained cell growth, NIH 3T3 cells were cultured with 1 μg CG53135-01 or control for 48 hours and then counted (FIG. 20). CG53135 induced an approximately 2-fold increase in cell number relative to control in this assay.

The subject of assay [17] is human umbilical vein endothelial cells. Kind of assay: Cell survival and BrdU incorporation in endothelial cells. To be noted: HUVEC. Format: cell-based. As for the experimental part: as §2
(§7) Effects of CG53135 on Endothelial Cells: protein therapeutic agents may inhibit or promote angiogenesis, the process through which endothelial cells differentiate into capillaries. Because CG53135 belongs to the fibroblast growth factor family, some members of which have angiogenic properties, the antiangiogenic or pro-angiogenic effects of CG53135 on endothelial cell lines were evaluated. The following cell lines were chosen because they are cell types used in understanding angiogenesis in cancer: HUVEC (human umbilical vein endothelial cells), BAEC (bovine aortic endothelial cells), HMVEC-d (human endothelial, dermal capillary). These endothelial cell types undergo morphogenic differentiation and are representative of large vessel (HUVEC, BAEC) as well as capillary endothelial cells (HMVEC-d).

Assay [18] has as its system human dermal microvascular endothelial cells. The assay is described as above. To be noted: HMVEC-d. Format: cell-based. Here is the method:
as §2, §7

Assay [19] has as its system bovine aortic endothelial cells. Described as above. Format: cell-based. To be noted: BAEC. Here is the method: as §2, §7
For assay [20], the system named is HUVECS. Kind of assay: VEGF induced cell migration. Format: cell-based, human. Conditions: HUVEC.

With “CG53135-01: FGF-20 wild type, stop codon removed; SEQ ID NOs 1 and 2; expressed as tagged full-length variant”, the “induction of DNA synthesis” value in [1] is “did not induce any significant increase in DNA synthesis”; in assay [2] it was “did not induce any significant increase in DNA synthesis”; in assay [3], “induced DNA synthesis”; in assay [4], “did not induce any significant increase in DNA synthesis”; in [5], “induced DNA synthesis”; in assay [7], “did not induce any significant increase in DNA synthesis”. The “induction of DNA synthesis” value was “did not induce any significant increase in DNA synthesis” in [8]; “induced DNA synthesis” in [9]; “induced DNA synthesis” in assay [11]; “dose-dependent manner” in assay [13]; “induced DNA synthesis” in assay [15]; “induced DNA synthesis” in [16]. Further, the “effect on DNA synthesis” value in assay [6] is reported as “no stimulatory effect”. For the same substance, the BrdU incorporation response entry in assay [10] is on record as “did not show any response”. Besides, the “proliferation of mesenchymal and epithelial cells” value in assay [12] is reported as “induces a proliferative response”. In the assay with endothelial cells, the “proliferation of endothelial cells” value was “not”. For the same substance, the “half maximal concentration for induction of DNA synthesis” value in assay [13] is approximately 10 ng/mL. For the same substance, in the assay on HUVECS [14], the tube formation entry is on record as “did not inhibit tube formation”. Also, in the assay on NIH 3T3 cells, the “increase in cell number relative to control” value is recorded as “approximately 2 fold”. Besides, the “cell survival and BrdU incorporation” value in [17], in [18] and in assay [19] was “did not alter cell survival or have stimulatory effects on BrdU incorporation” in each case. The “VEGF induced cell migration” value with HUVECS [20] was “had no effect”.

For the origin of these results see US20050164929A1, “Methods of preventing and treating inflammatory bowel disease” (LUPINE LOGIC, INC., priority 2000, published 2005).
